{"source": "patent US10556865B2", "about": "“Synergistic herbicidal composition containing certain pyridine or pyrimidine carboxylic acids and certain cereal and rice herbicides” (Dow AgroSciences, LLC, priority 2007, dated 2020)", "key": {"[1]": {"tested_on": "Brachiaria platyphylla (BRISEB.) NASH (BRAPP)", "test": "Postemergence herbicidal mixtures for weed control in direct seeded rice (greenhouse, visual % injury)", "format": "in vivo"}, "[2]": {"tested_on": "Digitaria sanguinalis (L.) SCOP. (DIGSA)", "test": "Postemergence herbicidal mixtures for weed control in direct seeded rice (greenhouse, visual % injury)", "format": "in vivo"}, "[3]": {"tested_on": "Canada thistle (Cirsium arvense L; CIRAR)", "test": "Postemergence herbicidal activity of mixtures in cereal crops (greenhouse, visual injury)", "format": "in vivo", "procedure,_shortened": "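Weeds grown in greenhouse (~14 h photoperiod, ~18/17 °C day/night) to second–third true leaf stage, sprayed postemergence with compound and second cereal herbicide alone or combined; solvent-blank controls. Injury scored visually after 20-22 days, 0–100% (complete kill); expected mixture activity = A+B−(A×B/100).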"}, "yellow foxtail (PESGL)": {"tested_on": "yellow foxtail (PESGL)", "test": "Postemergence herbicidal activity of mixtures in cereal crops (greenhouse, visual injury)", "format": "in vivo, Pennisetum americanum", "description": "Seeds of the desired test plant species were planted in Sun Gro MetroMix® 306 planting mixture, which typically has a pH of 6.0 to 6.8 and an organic matter content of about 30 percent, in plastic pots with a surface area of 103.2 square centimeters (cm^2). […] The plants were grown for 7-36 days in a greenhouse with an approximate 14 hour photoperiod which was maintained at about 18° C. during the day and 17° C. during the night. Nutrients and water were added on a regular basis and supplemental lighting was provided with overhead metal halide 1000-Watt lamps as necessary. The plants were employed for testing when they reached the second or third true leaf stage.\nTreatments consisted of compound (as listed in Tables 1 through 64) and a second cereal herbicide alone and in combination. […] The concentrated stock solutions were diluted to 1.5 mg ai/mL with the addition of 2 volumes of an aqueous mixture containing acetone, water, isopropyl alcohol, DMSO, Agri-dex crop oil concentrate, and Triton® X-77 surfactant in a 64.7:26.0:6.7:2.0:0.7:0.01 v/v ratio. A dilution solution was prepared by mixing 1 volume of 97:3 v/v acetone/DMSO and 2 volumes of an aqueous mixture containing acetone, water, isopropyl alcohol, DMSO, Agri-dex crop oil concentrate, and Triton® X-77 surfactant in a 64.7:26.0:6.7:2.0:0.7:0.01 v/v ratio. Compound requirements are based upon a 12 mL application volume at a rate of 187 liters per hectare (L/ha). […] Formulated compounds were applied to the plant material with an overhead Mandel track sprayer equipped with 8002E nozzles calibrated to deliver 187 L/ha over an application area of 0.503 square meters (m^2) at a spray height of 18 inches […] above average plant canopy. Control plants were sprayed in the same manner with the solvent blank.\nThe treated plants and control plants were placed in a greenhouse as described above and watered by sub-irrigation to prevent wash-off of the test compounds. After 20-22 days, the condition of the test plants as compared with that of the control plants was determined visually and scored on a scale of 0 to 100 percent where 0 corresponds to no injury and 100 corresponds to complete kill.\nColby's equation was used to determine the herbicidal effects expected from the mixtures (Colby, S. R. 1967. Calculation of the synergistic and antagonistic response of herbicide combinations. Weeds 15:20-22.).\nThe following equation was used to calculate the expected activity of mixtures containing two active ingredients, A and B: Expected=A+B−(A×B/100)"}}}
{"compound": "COC(=O)c1nc(-c2ccc(Cl)c(OC)c2F)cc(N)c1Cl", "note": "[Compound A Methyl, 4-amino-3-chloro-6-(4-chloro-2-fluoro-3-methoxyphenyl)pyridine-2-carboxylic acid methyl ester]", "values": [{"measurement": "% Injury Ob", "setting": "[1]; 4.38 g/ha alone", "result": 60, "unit": "%"}, {"measurement": "% Injury Ob", "setting": "[1]; 8.75 g/ha alone", "result": 60, "unit": "%"}, {"measurement": "% Injury Ob", "setting": "[2]; 8.75 g/ha alone", "result": 20, "unit": "%"}, {"measurement": "% Injury Ob", "setting": "[2]; 17.5 g/ha alone", "result": 50, "unit": "%"}]}
{"compound": "COc1c(Cl)ccc(-c2cc(N)c(Cl)c(C(=O)O)n2)c1F", "note": "[Compound A TEA, 4-amino-3-chloro-6-(4-chloro-2-fluoro-3-methoxyphenyl)pyridine-2-carboxylic acid]", "values": [{"measurement": "CIRAR Ob", "setting": "[3]; 35 g/ha", "result": 50, "unit": "%"}, {"measurement": "CIRAR Ob", "setting": "[3]; 70 g/ha", "result": 60, "unit": "%"}, {"measurement": "CIRAR Ob", "setting": "[3]; 140 g/ha", "result": 65, "unit": "%"}]}
{"compound": "COC(=O)c1nc(-c2ccc(Cl)c(OC)c2F)nc(N)c1Cl", "note": "[Compound B Methyl, 6-amino-5-chloro-2-(4-chloro-2-fluoro-3-methoxyphenyl)pyrimidine-4-carboxylic acid methyl ester]", "values": [{"measurement": "PESGL Ob", "setting": "yellow foxtail (PESGL); 8.75 g/ha", "result": 60, "unit": "%"}, {"measurement": "PESGL Ob", "setting": "yellow foxtail (PESGL); 17.5 g/ha", "result": 65, "unit": "%"}, {"measurement": "PESGL Ob", "setting": "yellow foxtail (PESGL); 35 g/ha", "result": 65, "unit": "%"}, {"measurement": "PESGL Ob", "setting": "yellow foxtail (PESGL); 70 g/ha", "result": 70, "unit": "%"}]}
